Values of other authors as cited in patent publication US20090012088A1 (priority 2005, published 2009).

Legend:
PARG [1] = molecular target: T1, PARG (Homo sapiens, UniProt Q86W56); conditions: tannins; read-out: in vitro IC50 for PARG; cited from earlier work
34I cells = conditions: cited from earlier work
[2] = test system: rat model of focal cerebral ischemia; conditions: cited from earlier work
PARG [3] = molecular target: T1, PARG; conditions: 32P-PAR assay; KM of PAR 1.7 μM; cited from earlier work
PARG [4] = molecular target: T1, PARG; conditions: cited from earlier work
PARG [5] = molecular target: PARG (Bos taurus, UniProt O02776); conditions: cited from earlier work
PARG (Bos taurus, UniProt O02776), sequence (O02776 whole entry): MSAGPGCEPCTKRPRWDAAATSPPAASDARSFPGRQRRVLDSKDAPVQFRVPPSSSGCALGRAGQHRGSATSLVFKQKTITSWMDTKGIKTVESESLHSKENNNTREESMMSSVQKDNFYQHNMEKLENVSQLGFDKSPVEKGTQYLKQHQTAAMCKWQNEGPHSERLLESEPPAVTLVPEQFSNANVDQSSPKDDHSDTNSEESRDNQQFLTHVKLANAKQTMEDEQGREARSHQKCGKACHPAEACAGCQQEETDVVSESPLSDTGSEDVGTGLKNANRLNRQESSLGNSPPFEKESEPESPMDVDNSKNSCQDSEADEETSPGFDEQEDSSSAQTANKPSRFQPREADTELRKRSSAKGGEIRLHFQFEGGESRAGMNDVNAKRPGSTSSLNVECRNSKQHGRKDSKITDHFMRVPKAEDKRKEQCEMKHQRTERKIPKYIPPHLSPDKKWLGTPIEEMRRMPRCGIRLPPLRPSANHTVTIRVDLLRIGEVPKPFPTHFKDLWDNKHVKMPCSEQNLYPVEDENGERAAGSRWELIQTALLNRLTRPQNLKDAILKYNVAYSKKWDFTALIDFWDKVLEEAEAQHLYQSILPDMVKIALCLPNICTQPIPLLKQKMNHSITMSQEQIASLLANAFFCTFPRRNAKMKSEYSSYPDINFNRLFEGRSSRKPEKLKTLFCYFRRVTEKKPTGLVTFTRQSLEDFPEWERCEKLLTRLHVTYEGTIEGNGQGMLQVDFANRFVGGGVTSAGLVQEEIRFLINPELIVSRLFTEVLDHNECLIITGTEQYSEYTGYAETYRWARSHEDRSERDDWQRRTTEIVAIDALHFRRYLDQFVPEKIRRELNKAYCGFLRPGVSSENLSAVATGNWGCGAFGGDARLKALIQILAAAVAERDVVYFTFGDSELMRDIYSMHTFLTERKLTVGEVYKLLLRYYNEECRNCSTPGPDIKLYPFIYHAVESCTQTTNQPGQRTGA

[6] = test system: human neuroblastoma cells; conditions: cited from earlier work

T1 sequence (Q86W56 whole entry, species assumed): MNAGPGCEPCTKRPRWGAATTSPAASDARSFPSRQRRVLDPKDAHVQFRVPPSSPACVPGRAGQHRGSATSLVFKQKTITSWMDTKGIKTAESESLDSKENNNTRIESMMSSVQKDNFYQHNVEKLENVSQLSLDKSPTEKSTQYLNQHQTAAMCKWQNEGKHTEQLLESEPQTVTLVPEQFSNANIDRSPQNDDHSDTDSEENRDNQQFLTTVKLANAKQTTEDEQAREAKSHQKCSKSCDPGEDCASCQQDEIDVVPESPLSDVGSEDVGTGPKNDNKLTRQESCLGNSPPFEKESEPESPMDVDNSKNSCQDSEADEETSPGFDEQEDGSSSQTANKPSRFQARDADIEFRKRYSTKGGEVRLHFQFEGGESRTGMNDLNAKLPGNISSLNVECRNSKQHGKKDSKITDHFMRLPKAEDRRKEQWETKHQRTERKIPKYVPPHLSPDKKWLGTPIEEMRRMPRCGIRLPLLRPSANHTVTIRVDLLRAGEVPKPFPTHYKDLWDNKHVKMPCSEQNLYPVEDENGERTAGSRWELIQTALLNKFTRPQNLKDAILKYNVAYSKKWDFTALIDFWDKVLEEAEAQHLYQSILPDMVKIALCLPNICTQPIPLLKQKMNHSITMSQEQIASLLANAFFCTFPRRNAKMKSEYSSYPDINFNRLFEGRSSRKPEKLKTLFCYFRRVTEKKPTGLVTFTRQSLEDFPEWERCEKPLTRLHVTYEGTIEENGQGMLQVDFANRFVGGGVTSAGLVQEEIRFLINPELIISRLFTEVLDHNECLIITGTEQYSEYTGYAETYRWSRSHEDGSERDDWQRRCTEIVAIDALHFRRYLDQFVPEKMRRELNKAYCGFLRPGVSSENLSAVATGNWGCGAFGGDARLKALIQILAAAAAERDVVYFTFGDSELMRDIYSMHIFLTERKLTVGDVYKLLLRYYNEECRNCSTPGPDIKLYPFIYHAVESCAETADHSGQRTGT

nobotanin B
IC50 (PARG [1]): 4.8 µM | Inhibition of PAR catabolism in intact cells (34I cells): concentration-dependent inhibition of PAR catabolism

O=C(NCCCc1ccccc1)c1ccc2c(c1)C(=O)c1cc(C(=O)NCCCc3ccccc3)ccc1-2 [GPI 16552, 2,7-Bis[N-(3-phenyl-propyl)carbamoyl]-9-Oxo-9H-fluorene]
Reduction of total infarct volume ([2]; 30-minute pre-ischemia or 1- or 2-hour post-ischemia treatment): 47-53% | Protection in cortical areas ([2]; rat, in vivo): 43-59% | Protection in subcortical areas ([2]; rat, in vivo): 28-40%

CCOc1ccc2nc3cc(N)ccc3c(N)c2c1 [ethacridine]
Ki (PARG [3]): < 7 µM

CCC(C)CC1CCC(O)(C(C)(O)C(=O)NC2C(=O)N3NCCCC3C(=O)N(O)C(C)C(=O)NCC(=O)N3NCCCC3C(=O)N(O)C(C)C(=O)OC2C(C)C)OC1C (centres unmarked) [PD 124,966]
IC50 for PARG (PARG [4]): 40 µg/mL

Nc1ccc2cc3ccc(N)cc3nc2c1 [profavine]
Ki (PARG [3]): 36 µM

Oenothein B
IC50 (PARG [1]): 3.8 µM

adenosine diphosphate (hydroxymethyl)pyrrolidinediol [ADP-HPD]
IC50 lower than that of ADP-ribose (PARG [5]): 1000 fold

pargamicin
IC50 for PARG (PARG [4]): 28 µg/mL

C=CCN1CCc2nc(N)sc2CC1 [talipexole]
Concentration required for protection [6]: 1 mM

O=C(OC[C@H]1O[C@@H](OC(=O)c2cc(O)c(O)c(O)c2)[C@@H]2OC(=O)c3cc(O)c(O)c(O)c3-c3c(cc(O)c(O)c3O)C(=O)O[C@H]2[C@@H]1OC(=O)c1cc(O)c(O)c(O)c1Oc1cc2c(c(O)c1O)-c1c(cc(O)c(O)c1O)C(=O)O[C@H]1[C@@H]3OC(=O)c4cc(Oc5c(C(=O)O[C@H]6[C@@H]7OC(=O)c8cc(O)c(O)c(O)c8-c8c(cc(O)c(O)c8O)C(=O)O[C@H]7[C@H](OC(=O)c7cc(O)c(O)c(O)c7)O[C@@H]6COC(=O)c6cc(O)c(O)c(O)c6)cc(O)c(O)c5O)c(O)c(O)c4-c4c(cc(O)c(O)c4O)C(=O)O[C@H]3[C@H](OC(=O)c3cc(O)c(O)c(O)c3)O[C@@H]1COC2=O)c1cc(O)c(O)c(O)c1 [nobotanin E]
Inhibition of PAR catabolism in intact cells (34I cells): little inhibitory effect

Nc1ncnc2c1ncn2[C@@H]1O[C@H](COP(=O)(O)OP(=O)(O)OC[C@H]2OC(O)[C@H](O)[C@@H]2O)[C@@H](O)[C@H]1O (some centres unmarked) [ADP-ribose]
IC50 (PARG [5]; substrate analogues, FIG. 9): 120 µM

CCN(CC)CCOc1ccc2c(c1)C(=O)c1cc(OCCN(CC)CC)ccc1-2 [Tilorone]
Ki (PARG [3]): ~7 µM

O=C(OCC1OC(OC(=O)c2cc(O)c(O)c(O)c2)C2OC(=O)c3cc(O)c(O)c(O)c3-c3c(cc(O)c(O)c3O)C(=O)OC2C1OC(=O)c1cc(O)c(O)c(O)c1Oc1cc2c(c(O)c1O)-c1c(cc(O)c(O)c1O)C(=O)OC1C(COC2=O)OC(OC(=O)c2cc(O)c(O)c(O)c2)C2OC(=O)c3cc(O)c(O)c(O)c3-c3c(cc(Oc4c(C(=O)OC5C(COC(=O)c6cc(O)c(O)c(O)c6)OC(OC(=O)c6cc(O)c(O)c(O)c6)C6OC(=O)c7cc(O)c(O)c(O)c7-c7c(cc(Oc8c(C(=O)OC9OC%10COC(=O)c%11cc(O)c(O)c(O)c%11-c%11c(cc(O)c(O)c%11O)C(=O)OC%10C%10OC(=O)c%11cc(O)c(O)c(O)c%11-c%11c(cc(O)c(O)c%11O)C(=O)OC9%10)cc(O)c(O)c8O)c(O)c7O)C(=O)OC56)cc(O)c(O)c4O)c(O)c3O)C(=O)OC12)c1cc(O)c(O)c(O)c1 (centres unmarked) [nobotanin K]
IC50 (PARG [1]): 0.44 µM | Inhibition of PAR catabolism in intact cells (34I cells): little inhibitory effect
